Experiments:
[1] = biological target: ARAF (human) (UniProt P10398)
[2] = biological target: ATM (human) (UniProt Q13315)
[3] = biological target: CDK10 (human) (UniProt Q15131)
[4] = biological target: PRKDC (human) (UniProt P78527)
[5] = biological target: SGK223 (human) (UniProt Q86YV5)
[6] = biological target: CDKL2 (human) (UniProt Q92772)
[7] = biological target: LRRK2 (human) (UniProt Q5S007)
[8] = biological target: PIK3C2B (human) (UniProt O00750)
[9] = biological target: TESK2 (human) (UniProt Q96S53)

Chain of PRKDC (human) (P78527 whole entry, looked up): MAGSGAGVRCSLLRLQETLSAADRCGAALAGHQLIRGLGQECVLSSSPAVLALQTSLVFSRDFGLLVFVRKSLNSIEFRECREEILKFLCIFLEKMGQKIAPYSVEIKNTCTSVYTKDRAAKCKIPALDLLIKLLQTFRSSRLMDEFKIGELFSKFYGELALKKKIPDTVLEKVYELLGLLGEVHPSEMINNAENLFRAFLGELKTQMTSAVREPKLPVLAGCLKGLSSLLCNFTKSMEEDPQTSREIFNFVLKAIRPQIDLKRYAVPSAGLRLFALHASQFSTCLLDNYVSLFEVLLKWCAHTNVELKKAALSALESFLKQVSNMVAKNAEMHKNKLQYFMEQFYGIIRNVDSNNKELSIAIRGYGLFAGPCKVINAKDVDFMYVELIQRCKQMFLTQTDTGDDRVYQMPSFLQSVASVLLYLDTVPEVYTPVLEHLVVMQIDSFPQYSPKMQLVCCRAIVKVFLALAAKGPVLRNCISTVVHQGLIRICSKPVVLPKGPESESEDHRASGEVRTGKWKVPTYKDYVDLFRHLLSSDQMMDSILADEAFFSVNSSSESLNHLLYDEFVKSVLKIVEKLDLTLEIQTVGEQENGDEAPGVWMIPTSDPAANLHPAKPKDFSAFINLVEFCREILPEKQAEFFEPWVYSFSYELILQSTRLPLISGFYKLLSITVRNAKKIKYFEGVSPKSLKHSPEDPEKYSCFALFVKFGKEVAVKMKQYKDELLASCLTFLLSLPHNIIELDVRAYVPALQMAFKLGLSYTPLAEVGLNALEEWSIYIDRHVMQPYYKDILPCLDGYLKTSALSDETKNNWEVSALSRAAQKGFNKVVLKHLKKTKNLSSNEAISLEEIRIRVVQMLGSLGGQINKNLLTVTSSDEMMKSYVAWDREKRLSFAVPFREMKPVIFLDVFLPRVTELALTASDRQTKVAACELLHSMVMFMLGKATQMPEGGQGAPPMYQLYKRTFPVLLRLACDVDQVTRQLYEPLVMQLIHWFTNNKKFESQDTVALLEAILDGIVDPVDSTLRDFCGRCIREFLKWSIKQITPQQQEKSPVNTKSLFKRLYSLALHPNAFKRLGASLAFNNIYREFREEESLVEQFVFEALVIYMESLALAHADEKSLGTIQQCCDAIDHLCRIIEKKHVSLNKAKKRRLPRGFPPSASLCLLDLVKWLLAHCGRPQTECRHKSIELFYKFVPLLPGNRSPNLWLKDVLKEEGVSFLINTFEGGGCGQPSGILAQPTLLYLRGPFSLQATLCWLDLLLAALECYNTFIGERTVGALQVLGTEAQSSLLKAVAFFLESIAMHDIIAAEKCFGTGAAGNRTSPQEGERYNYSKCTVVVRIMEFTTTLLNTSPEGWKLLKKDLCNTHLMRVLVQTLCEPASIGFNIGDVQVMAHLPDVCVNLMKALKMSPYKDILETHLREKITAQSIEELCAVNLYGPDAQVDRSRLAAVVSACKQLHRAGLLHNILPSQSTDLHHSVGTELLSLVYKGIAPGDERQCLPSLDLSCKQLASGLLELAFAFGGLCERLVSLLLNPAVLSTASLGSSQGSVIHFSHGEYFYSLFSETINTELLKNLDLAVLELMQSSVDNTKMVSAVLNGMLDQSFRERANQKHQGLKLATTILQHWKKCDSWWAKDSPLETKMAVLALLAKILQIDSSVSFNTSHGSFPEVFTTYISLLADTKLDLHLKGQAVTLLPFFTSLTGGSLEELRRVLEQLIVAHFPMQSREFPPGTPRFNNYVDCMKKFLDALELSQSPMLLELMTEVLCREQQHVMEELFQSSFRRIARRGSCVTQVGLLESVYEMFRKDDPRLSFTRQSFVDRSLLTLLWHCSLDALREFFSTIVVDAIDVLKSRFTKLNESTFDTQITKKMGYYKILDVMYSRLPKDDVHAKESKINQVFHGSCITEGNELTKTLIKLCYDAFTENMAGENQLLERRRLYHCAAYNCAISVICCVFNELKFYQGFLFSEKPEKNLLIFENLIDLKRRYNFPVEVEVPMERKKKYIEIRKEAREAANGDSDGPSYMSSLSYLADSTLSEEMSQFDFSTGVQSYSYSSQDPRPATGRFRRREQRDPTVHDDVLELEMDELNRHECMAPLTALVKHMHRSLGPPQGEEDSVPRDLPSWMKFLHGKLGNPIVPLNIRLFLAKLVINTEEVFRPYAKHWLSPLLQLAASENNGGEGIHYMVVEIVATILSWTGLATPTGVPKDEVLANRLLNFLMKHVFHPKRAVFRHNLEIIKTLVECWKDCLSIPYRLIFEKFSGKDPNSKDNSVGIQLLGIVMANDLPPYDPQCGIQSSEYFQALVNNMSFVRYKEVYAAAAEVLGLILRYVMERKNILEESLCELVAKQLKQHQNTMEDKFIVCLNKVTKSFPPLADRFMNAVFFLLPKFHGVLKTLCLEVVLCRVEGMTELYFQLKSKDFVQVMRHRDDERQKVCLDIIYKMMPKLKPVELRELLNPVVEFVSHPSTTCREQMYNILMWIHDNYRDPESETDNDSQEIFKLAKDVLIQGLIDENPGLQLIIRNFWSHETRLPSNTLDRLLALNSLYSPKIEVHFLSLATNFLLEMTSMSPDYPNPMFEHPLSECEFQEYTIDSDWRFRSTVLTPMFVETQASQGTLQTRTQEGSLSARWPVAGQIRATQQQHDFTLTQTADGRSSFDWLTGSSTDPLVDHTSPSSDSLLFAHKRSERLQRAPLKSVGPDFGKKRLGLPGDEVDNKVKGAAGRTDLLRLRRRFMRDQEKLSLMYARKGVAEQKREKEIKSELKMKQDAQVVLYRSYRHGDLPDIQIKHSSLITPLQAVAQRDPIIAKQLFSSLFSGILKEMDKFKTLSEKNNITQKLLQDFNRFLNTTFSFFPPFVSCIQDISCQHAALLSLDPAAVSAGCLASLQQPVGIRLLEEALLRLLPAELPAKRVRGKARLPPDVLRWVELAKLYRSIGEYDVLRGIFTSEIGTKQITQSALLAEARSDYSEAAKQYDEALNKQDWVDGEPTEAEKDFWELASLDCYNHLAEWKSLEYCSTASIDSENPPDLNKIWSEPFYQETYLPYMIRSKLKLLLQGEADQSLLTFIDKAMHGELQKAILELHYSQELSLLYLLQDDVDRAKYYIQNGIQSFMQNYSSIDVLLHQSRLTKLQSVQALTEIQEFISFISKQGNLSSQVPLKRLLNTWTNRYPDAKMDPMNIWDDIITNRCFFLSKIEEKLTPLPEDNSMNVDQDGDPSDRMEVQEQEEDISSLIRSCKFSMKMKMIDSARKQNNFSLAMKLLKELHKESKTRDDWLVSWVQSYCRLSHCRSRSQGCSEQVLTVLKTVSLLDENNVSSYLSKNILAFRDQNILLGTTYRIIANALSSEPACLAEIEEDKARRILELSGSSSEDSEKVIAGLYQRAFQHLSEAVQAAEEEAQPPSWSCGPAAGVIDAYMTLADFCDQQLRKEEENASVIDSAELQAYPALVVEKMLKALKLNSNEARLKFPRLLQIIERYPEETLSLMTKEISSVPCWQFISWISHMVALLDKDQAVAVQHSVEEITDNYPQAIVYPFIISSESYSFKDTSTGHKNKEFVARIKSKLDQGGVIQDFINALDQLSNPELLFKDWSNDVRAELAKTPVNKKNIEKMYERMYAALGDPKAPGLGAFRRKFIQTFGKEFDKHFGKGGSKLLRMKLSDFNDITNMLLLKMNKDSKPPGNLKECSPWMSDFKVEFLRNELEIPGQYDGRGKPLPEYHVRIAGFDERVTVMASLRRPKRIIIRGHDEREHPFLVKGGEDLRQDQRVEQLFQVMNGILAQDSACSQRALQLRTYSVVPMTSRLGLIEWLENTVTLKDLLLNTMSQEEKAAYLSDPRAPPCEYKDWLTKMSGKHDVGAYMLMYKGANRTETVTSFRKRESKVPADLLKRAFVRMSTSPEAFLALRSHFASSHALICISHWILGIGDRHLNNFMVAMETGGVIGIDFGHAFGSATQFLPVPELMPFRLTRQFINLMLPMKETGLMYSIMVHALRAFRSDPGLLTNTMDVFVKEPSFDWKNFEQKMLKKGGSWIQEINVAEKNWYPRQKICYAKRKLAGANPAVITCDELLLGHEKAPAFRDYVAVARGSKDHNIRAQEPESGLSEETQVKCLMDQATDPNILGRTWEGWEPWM
Chain of CDK10 (human) (Q15131 whole entry, looked up): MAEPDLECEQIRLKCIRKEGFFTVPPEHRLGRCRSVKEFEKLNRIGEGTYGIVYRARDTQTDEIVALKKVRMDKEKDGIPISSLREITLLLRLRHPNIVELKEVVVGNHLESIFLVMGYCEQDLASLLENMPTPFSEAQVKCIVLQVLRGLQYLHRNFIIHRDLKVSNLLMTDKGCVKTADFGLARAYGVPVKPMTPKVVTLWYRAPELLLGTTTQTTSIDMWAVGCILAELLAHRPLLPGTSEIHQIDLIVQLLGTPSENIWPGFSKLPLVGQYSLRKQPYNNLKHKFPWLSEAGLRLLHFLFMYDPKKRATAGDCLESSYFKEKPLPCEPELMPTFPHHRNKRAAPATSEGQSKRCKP
Chain of CDKL2 (human) (Q92772 whole entry, looked up): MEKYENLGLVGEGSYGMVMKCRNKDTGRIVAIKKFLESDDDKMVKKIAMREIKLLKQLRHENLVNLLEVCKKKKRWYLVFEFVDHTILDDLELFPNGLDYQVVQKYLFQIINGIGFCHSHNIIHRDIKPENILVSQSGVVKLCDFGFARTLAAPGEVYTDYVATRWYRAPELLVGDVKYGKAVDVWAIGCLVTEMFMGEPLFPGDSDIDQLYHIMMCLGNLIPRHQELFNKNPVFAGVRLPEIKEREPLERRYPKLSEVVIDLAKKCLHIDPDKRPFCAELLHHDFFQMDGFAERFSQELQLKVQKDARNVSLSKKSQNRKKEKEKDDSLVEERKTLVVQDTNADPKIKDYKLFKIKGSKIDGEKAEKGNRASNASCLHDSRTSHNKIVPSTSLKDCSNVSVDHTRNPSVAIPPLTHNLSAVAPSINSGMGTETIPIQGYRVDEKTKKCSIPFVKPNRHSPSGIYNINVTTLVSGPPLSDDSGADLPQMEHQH

| SMILES | IC50 [1] | IC50 [2] | IC50 [3] | IC50 [4] | IC50 [5] | IC50 [6] | IC50 [7] | IC50 [8] | IC50 [9] |
| --- | --- | --- | --- | --- | --- | --- | --- | --- | --- |
| CN[C@@H]1C[C@H]2O[C@@](C)([C@@H]1OC)n1c3ccccc3c3c4c(c5c6ccccc6n2c5c31)C(=O)NC4 | > 10 µM | > 10 µM | 0.87 µM | > 10 µM | 5.05 µM |  |  |  |  |
| CC[C@@H](CO)Nc1nc(NCc2ccccc2)c2ncn(C(C)C)c2n1 |  | > 10 µM |  | > 10 µM | > 10 µM | > 10 µM | > 10 µM | > 10 µM |  |
| CC(C)(C)c1cnc(CSc2cnc(NC(=O)C3CCNCC3)s2)o1 |  | > 10 µM |  | > 10 µM |  |  |  |  | > 10 µM |
